In brackets after ≈: the same amount, converted by molar mass. One block for each compound: values may come before it.
Key:
Experiment in all cases: ≥ marks a high value that may be exact or a test limit, other limits are often not marked, values filed in µg/mL are converted to µM
[1] = test system: Salmonella typhimurium KCTC 1926
[2] = test system: Saccharomyces cerevisiae KCTC 7296
[3] = test system: Bacillus subtilis KCTC 1918
[4] = test system: Candida albicans TIMM 1768
[5] = test system: Staphylococcus aureus KCTC 1621
[6] = test system: Trichosporon beigelii KCTC 7707
[7] = test system: Proteus vulgaris KCTC 2433
[8] = test system: Penicillium sp. PHI-8
[9] = test system: Saccharomyces cerevisiae FY1679
[10] = test system: Alternaria sp. PHI-44
[11] = test system: Bacillus subtilis CECT 498
[12] = test system: Aspergillus nidulans biA1
[13] = test system: Penicillium italicum PHI-1
[14] = test system: Escherichia coli DH5alpha
[15] = test system: Penicillium expansum PHI-65
[16] = test system: Pyricularia grisea PR-9
[17] = test system: Penicillium digitatum PHI-26
[18] = test system: Botrytis cinerea #8
[19] = test system: Fusarium oxysporum CECT 2866
[20] = test system: Escherichia coli ATCC 25922
[21] = test system: Candida albicans ATCC 10231
[22] = test system: Staphylococcus capitis 1
[23] = test system: Bacillus megaterium Bm11
[24] = test system: Staphylococcus aureus Cowan 1
[25] = test system: Yersinia pseudotuberculosis YPIII
[26] = test system: Enterobacter cloacae ATCC 13047
[27] = test system: Listeria monocytogenes EGD
[28] = test system: Staphylococcus saprophyticus ATCC 19701
[29] = test system: Bacillus subtilis
[30] = test system: Escherichia coli
[31] = test system: Staphylococcus aureus ATCC 29740
[32] = test system: Salmonella enterica subsp. enterica serovar Typhimurium ATCC 14028
[33] = test system: Pseudomonas aeruginosa ATCC 25010
[34] = test system: Staphylococcus haemolyticus DSM 20263
[35] = test system: Bacillus cereus ATCC 14579
[36] = test system: Klebsiella pneumoniae ATCC 13882
[37] = test system: Salmonella enterica subsp. enterica serovar Enteritidis ATCC 13076
[38] = test system: Salmonella enterica subsp. enterica serovar Enteritidis LA5
[39] = test system: Bacillus subtilis CCT 2576
[40] = test system: Staphylococcus aureus ATCC 6538
[41] = test system: Pseudomonas aeruginosa ATCC 15422

SMILES: CSCC[C@H](NC(=O)[C@H](CCCN=C(N)N)NC(=O)[C@H](Cc1c[nH]c2ccccc12)NC(=O)[C@H](CCC(N)=O)NC(=O)[C@H](Cc1c[nH]c2ccccc12)NC(=O)[C@H](CCCN=C(N)N)NC(=O)[C@H](CCCN=C(N)N)NC(=O)[C@H](CS)NC(=O)[C@H](CCCCN)NC(=O)[C@H](Cc1ccccc1)NC(C)=O)C(=O)N[C@@H](CCCCN)C(=O)N[C@@H](CCCCN)C(=O)N[C@@H](CC(C)C)C(=O)NCC(=O)N[C@@H](C)C(N)=O [FKCRRWQWRMKKLGA]
MIC [8]: 8 µM (≈ 16.3 µg/mL) | MIC [9]: ≥ 32 µM | MIC [10]: 16 µM (≈ 32.6 µg/mL) | MIC [11]: 16 µM (≈ 32.6 µg/mL) | MIC [12]: 4 µM (≈ 8.14 µg/mL) | MIC [13]: 4 µM (≈ 8.14 µg/mL) | MIC [14]: 16 µM (≈ 32.6 µg/mL) | MIC [15]: 8 µM (≈ 16.3 µg/mL) | MIC [16]: ≥ 32 µM | MIC [17]: 4 µM (≈ 8.14 µg/mL) | MIC [18]: 16 µM (≈ 32.6 µg/mL) | MIC [19]: 8 µM (≈ 16.3 µg/mL)

SMILES: CC[C@H](C)[C@H](NC(=O)CNC(=O)[C@H](CO)NC(=O)[C@H](CC(C)C)NC(=O)[C@@H](NC(=O)[C@H](CCCN=C(N)N)NC(=O)CNC(=O)[C@@H](NC(=O)[C@H](CC(C)C)NC(=O)[C@@H]1CCCN1C(=O)[C@H](CC(C)C)NC(=O)[C@@H](N)Cc1ccccc1)[C@@H](C)CC)C(C)C)C(=O)N[C@@H](C)C(N)=O [FLPLIGRVLSGIA]
MIC [20]: > 40 µM | MIC [21]: 40 µM (≈ 54.2 µg/mL) | MIC [22]: ≥ 40 µM | MIC [23]: 20 µM (≈ 27.1 µg/mL) | MIC [24]: ≥ 40 µM | MIC [25]: ≥ 40 µM

SMILES: CC[C@H](C)[C@H](N)C(=O)N[C@@H](CC(N)=O)C(=O)N[C@@H](Cc1c[nH]c2ccccc12)C(=O)N[C@@H](CCCCN)C(=O)N[C@@H](CCCCN)C(=O)N[C@@H](CC(C)C)C(=O)N[C@@H](CC(C)C)C(=O)N[C@@H](CC(=O)O)C(=O)N[C@@H](C)C(=O)N[C@@H](C)C(=O)N[C@@H](CCCCN)C(=O)N[C@@H](CCC(N)=O)C(=O)N[C@H](C(=O)N[C@@H](CC(C)C)C(N)=O)[C@@H](C)CC [INWKKLLDAAKQIL]
MIC [39]: 2.96 µM (≈ 4.9 µg/mL) | MIC [20]: 5.8 µM (≈ 9.59 µg/mL) | MIC [40]: 7.8 µM (≈ 12.9 µg/mL) | MIC [41]: 28.3 µM (≈ 46.8 µg/mL)

The next lines start with results.

MIC [1]: 0.78 µM (≈ 1.68 µg/mL) | MIC [2]: ≥ 50 µM | MIC [3]: 3.12 µM (≈ 6.73 µg/mL) | MIC [4]: ≥ 50 µM | MIC [5]: 3.12 µM (≈ 6.73 µg/mL) | MIC [6]: ≥ 50 µM | MIC [7]: 12.5 µM (≈ 27 µg/mL)
SMILES: CC[C@H](C)[C@H](NC(=O)CNC(=O)[C@H](CC(C)C)NC(=O)[C@H](CCCN=C(N)N)NC(=O)[C@H](CCCCN)NC(=O)[C@H](Cc1ccccc1)NC(=O)[C@@H](NC(=O)[C@H](CCCCN)NC(=O)[C@H](CCCCN)NC(=O)[C@H](C)N)C(C)C)C(=O)NCC(=O)N[C@@H](C)C(=O)N[C@H](C(=O)N[C@@H](CC(C)C)C(=O)N[C@@H](Cc1c[nH]c2ccccc12)C(=O)N[C@H](C(=O)N[C@@H](CC(C)C)C(=O)N[C@H](C(=O)N[C@H](C(=O)NCC(=O)O)[C@@H](C)O)[C@@H](C)O)C(C)C)C(C)C [AKKVFKRLGIGAVLWVLTTG]

MIC [26]: 0.177 µM (≈ 0.799 µg/mL) | MIC [27]: 0.236 µM (≈ 1.06 µg/mL) | MIC [28]: 0.147 µM (≈ 0.662 µg/mL) | MIC [29]: 0.187 µM (≈ 0.844 µg/mL) | MIC [30]: 0.256 µM (≈ 1.15 µg/mL) | MIC [31]: 0.06 µM (≈ 0.27 µg/mL) | MIC [32]: 0.139 µM (≈ 0.624 µg/mL) | MIC [33]: 0.244 µM (≈ 1.1 µg/mL) | MIC [35]: 0.208 µM (≈ 0.938 µg/mL) | MIC [36]: 0.0872 µM (≈ 0.393 µg/mL) | MIC [37]: 0.163 µM (≈ 0.732 µg/mL) | MIC [38]: 0.147 µM (≈ 0.662 µg/mL)
SMILES: CC[C@H](C)[C@H](NC(=O)[C@H](CCCN=C(N)N)NC(=O)[C@H](CCCCN)NC(=O)[C@@H]1CSSC[C@@H]2NC(=O)[C@H](CCCCN)NC(=O)[C@H](CC(C)C)NC(=O)[C@H](Cc3ccccc3)NC(=O)[C@H](C)NC(=O)[C@@H]3CSSC[C@H](NC(=O)[C@H](CCCCN)NC(=O)CNC(=O)[C@H](CO)NC(=O)[C@H]([C@@H](C)CC)NC(=O)[C@H](CC(C)C)NC(=O)[C@H]([C@@H](C)O)NC(=O)[C@H](CC(C)C)NC(=O)[C@H](CO)NC(=O)[C@@H]4CCCN4C2=O)C(=O)N[C@@H](CO)C(=O)N[C@@H](CCCN=C(N)N)C(=O)N[C@@H](Cc2ccccc2)C(=O)N[C@@H](Cc2ccc(O)cc2)C(=O)N[C@@H](CC(C)C)C(=O)N[C@@H](CSSC[C@H](NC(=O)[C@H](CC(=O)O)NC(=O)[C@H](CO)NC(=O)[C@H](CCCCN)NC(=O)[C@H](CCCN=C(N)N)NC(=O)CN)C(=O)N[C@@H](Cc2ccccc2)C(=O)N[C@@H](CCCN=C(N)N)C(=O)N[C@@H](CCCCN)C(=O)N[C@@H](CO)C(=O)NCC(=O)N[C@@H](Cc2ccccc2)C(=O)N3)C(=O)N1)C(=O)N[C@@H](Cc1c[nH]c2ccccc12)C(N)=O [GRKSDCFRKSGFCAFLKCPSLTLISGKCSRFYLCCKRIW]
MIC [34]: 0.13 µM (≈ 0.584 µg/mL)
